# Columns and labels:
# Format in all cases: in vivo
# [1] = system: green peach aphid (Myzus persicae); assay: Example G: Myzus persicae test, hydroponic treatment (MYZUPE sys.); details: concentration 20 ppm, pea plant
# Protocol: Myzus persicae Test, Hydroponic Treatment (MYZUPE sys.)
# Solvent: 7 parts by weight of dimethylformamide
# Emulsifier: 2 parts by weight of alkylaryl polyglycol ether
# To produce a suitable preparation of active compound, 1 part by weight of active compound is mixed with the stated amounts of solvent and emulsifier, and the concentrate is diluted with water to the desired concentration.
# The preparation of active compound is mixed with water. The stated concentration refers to the amount of active compound per volume unit of water (mg/l=ppm). The treated water is filled into vessels containing a pea plant (Pisum sativum) which is then infested with the green peach aphid (Myzus persicae).
# After the desired period of time, the kill in percent is determined. 100% means that all aphids have been killed; 0% means that none of the aphids have been killed.
# Lolium multiflorum = assay: Example B: Herbicidal post-emergence action; details: application rate 320 g/ha, rated after about 3 weeks
# Protocol: (§1) Herbicidal Post-Emergence Action
# (§2) Seeds of monocotylos and dicotylos weed and crop plants are placed in sandy lawn in wood fibre pots, covered with soil and cultivated in a greenhouse under good growth conditions. Two to three weeks after sowing, the test plants are treated at the one-leaf stage. The test compounds, formulated as wettable powders (WP) or as emulsion concentrates (EC), are then, as an aqueous suspension with a water application rate of 800 l/ha (converted), with 0.2% of wetting agent added, sprayed onto the green parts of the plants. After the test plants have been kept in the greenhouse under optimum growth conditions for about 3 weeks, the effect of the preparations is rated visually in comparison to untreated controls (herbicidal effect in percent (%): 100% effect=the plants have died, 0% effect=like control plants).
# Setaria viridis = assay: Example B: Herbicidal post-emergence action; details: application rate 320 g/ha, rated after about 3 weeks
# Protocol: as §1, §2
Structure (SMILES),efficacy (kill of aphids) [1],"herbicidal effect (efficacy), post-emergence (Lolium multiflorum)","herbicidal effect (efficacy), post-emergence (Setaria viridis)"
COC1CCC2(CC1)NC(=O)C(c1c(C)cc(C3CC3)cc1C)=C2O (stereo not drawn) [Example I-1-a-4],≥ 90%,–,–
CCOC(=O)OC1=C(c2c(C)cc(C3CC3)cc2CC)C(=O)NC12CCC(OC)CC2 (stereo not drawn) [Example I-1-c-1],–,≥ 90%,≥ 90%

# Reference: US8541617B2, “Cycloalkylphenyl substituted cyclic ketoenols” (Bayer Cropscience AG, priority 2006, dated 2013)
